Experimental data published in US8013187B2, “2-cyclopenten-1-one oxime derivatives inhibiting production of TNF-α” (Amorepacific Corporation, priority 2004, dated 2011).
In brackets after ≈: the same amount, converted by molar mass.

Assays:
[1] = target: T1, PDE4D (Homo sapiens, UniProt Q08499); test: Inhibition of PDE4 isozymes ([3H]cAMP SPA): PDE4D; assay type: biochemical; conditions: @ 0.1 μg/ml, pH 7.4 Tris buffer
T1 construct: purchased Fab Gennix International Inc. (Frisco, Tex./USA)
Experimental: (§1) Inhibition of PDE4 Isozymes: Compounds of the instant invention were evaluated for their ability to inhibit isozymes of phosphodiesterase 4 (PDE4) obtained from Fab Gennix International Inc. (Frisco, Tex./USA) according to a literature method. […] In brief, a compound at a designated dose was assayed for their ability to inhibit the hydrolysis of cAMP by a PDE4 isozyme in pH 7.4 Tris buffer. The resulting level of cAMP was determined by the scintillation proximity assay (SPA) using a SPA kit from Amersham Biosciences according to the supplier's instruction manual (TRKQ7090 Phosphodiesterase [^3H]cAMP SPA enzyme assay).

[2] = target: T2, PDE4A (Homo sapiens, UniProt P27815); test: Inhibition of PDE4 isozymes ([3H]cAMP SPA): PDE4A; assay type: biochemical; conditions: @ 0.5 μg/ml, pH 7.4 Tris buffer
T2 construct: purchased Fab Gennix International Inc. (Frisco, Tex./USA)
T2 sequence (P27815 whole entry): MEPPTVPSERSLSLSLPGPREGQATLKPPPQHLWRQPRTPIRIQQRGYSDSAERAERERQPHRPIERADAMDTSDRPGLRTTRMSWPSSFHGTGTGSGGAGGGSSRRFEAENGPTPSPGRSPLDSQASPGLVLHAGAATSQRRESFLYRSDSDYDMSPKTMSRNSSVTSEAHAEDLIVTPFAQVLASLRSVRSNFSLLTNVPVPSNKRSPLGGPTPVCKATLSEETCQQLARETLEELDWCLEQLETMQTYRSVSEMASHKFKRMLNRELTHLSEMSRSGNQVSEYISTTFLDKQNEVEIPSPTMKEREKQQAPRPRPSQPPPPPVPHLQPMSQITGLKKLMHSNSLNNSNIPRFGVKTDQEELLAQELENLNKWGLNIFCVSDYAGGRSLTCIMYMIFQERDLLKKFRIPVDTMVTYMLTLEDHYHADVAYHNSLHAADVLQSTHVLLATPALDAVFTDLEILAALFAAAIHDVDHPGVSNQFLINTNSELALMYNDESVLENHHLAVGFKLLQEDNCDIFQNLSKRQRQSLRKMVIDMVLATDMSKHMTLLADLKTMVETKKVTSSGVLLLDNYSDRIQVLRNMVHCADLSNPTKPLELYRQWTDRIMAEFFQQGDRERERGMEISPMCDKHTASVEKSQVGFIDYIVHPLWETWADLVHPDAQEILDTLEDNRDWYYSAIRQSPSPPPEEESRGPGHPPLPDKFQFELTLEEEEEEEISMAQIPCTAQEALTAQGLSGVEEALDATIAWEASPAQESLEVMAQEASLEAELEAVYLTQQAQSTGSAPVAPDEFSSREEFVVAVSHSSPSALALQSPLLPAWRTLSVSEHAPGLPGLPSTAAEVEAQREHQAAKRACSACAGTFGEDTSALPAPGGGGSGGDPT
Experimental: as §1

[3] = system: production of TNF-α in rat PBMCs; test: Inhibition of TNF-α production in rat PBMCs (LPS/IFN-γ stimulated, ELISA); assay type: cell-based; conditions: PBMC; rat PBMCs, LPS + IFN-γ, 18 hours
Experimental: (§2) Compounds of this invention were evaluated for their ability to inhibit the production of TNF-α in stimulated immune cells. […] Compounds of the present invention were evaluated for their therapeutic activity in animal models for inflammatory or immunological disorders. Also compounds of this invention were assayed for their ability to inhibit PDE4 isozymes.
Inhibition of TNF-α Production in Rat PBMCs: Compounds of the present invention were evaluated for their ability to inhibit the production of TNF-α in rat peripheral blood mononuclear cells (PBMCs) as described in the literature. [Exp. Geront. vol 37, 235-247 (2002)] In brief, 6 ml rat blood drawn from the abdominal vein as treated with ACD (acid/citrate/dextrose) was carefully added in a tube containing 6 ml Ficoll 1077, and the tube was centrifuged for 30 min at 1500 rpm (415 G) at room temperature. The cell fraction (middle fraction) was suspended in a 50 ml tube containing phosphate buffered saline (PBS). The tube was centrifuged for 5 min at 2000 rpm (737 G). The resulting pellet was suspended in 6 ml PBS and 6 ml Ficoll 1077, and centrifuged for 30 min at 1500 rpm (415 G) at room temperature to remove remaining plasma. The cell fraction was suspended in PBS and centrifuged for 5 min at 2000 rpm. Such a washing was repeated twice. Then the collected cells were suspended in 10 ml RPMI-1640 containing 10% FBS and further diluted to contain 4×10^6 cells per ml. The cell suspension was dispensed into a 96-well plate at 100 μl per well, which was pre-supplemented with 1 μl of either DMSO (placebo) or a DMSO stock solution containing a designated concentration of a compound of this invention. The plate was cultured for an hour at 37° C. under 5% CO2 and 95% O2. To each well, was added 100 μl RPMI-1640 containing 0.1 μg/ml LPS, 5 U/ml IFN-γ, and 10% FBS. Then the plate was subjected to a culture for 18 hours at 37° C. under 5% CO2 and 95% O2. An aliquot of the supernatant from each well was subjected to an ELISA assay to determine the TNF-α level in the well.

[4] = system: production of TNF-α in mice stimulated with LPS; test: In vivo inhibition of TNF-α production in mice stimulated with LPS; conditions: Mus musculus, 2 h, LPS i.p., plasma at hour 2, read-out: % Inhibition of in vivo TNF-α production @ dose; for inhibition in vivo at 3 mg/kg: 3 mg/kg oral gavage
Experimental: [J. Pharmacol. Exp. Therapeut. vol 279, 1453-1461 (1996)] In brief, either a compound of the instant invention with vehicle or vehicle only (5% Tween 80) was administered by oral gavage (10 ml/kg body weight) at hour 0 to mice (Balb/C or ICR, 25˜30 g) fasted overnight. The mice were subjected to a peritoneal injection with […] LPS per mouse at hour 0.5, and blood was drawn from the abdominal vein at hour 2 following euthanasia with CO2. Then plasma separated from the drawn blood by centrifugation was subjected to an ELISA assay to measure the level of TNF-α.

[5] = system: colitis induced by dextran sulfate sodium (DSS) in Balb/c mice; test: DSS-induced colitis in mice; assay type: in vivo; conditions: 50 mg/kg BID oral, day 11, p>0.05
Experimental: Therapeutic Effect in DSS-induced Colitis: Compounds of the present invention were evaluated for their ability to treat colitis induced by dextran sulfate sodium (DSS) in mice according to the literature. […] In brief, female Balb/c mice weighing 16-20 g were randomized into groups (5˜6 per group) and were allowed from day 1 free access to water containing 5% DSS. A compound of this invention or sulfasalazine in 5% Tween 80 at 10 ml/kg was orally administered twice a day. Clinical activity score of each animal was measured on a daily basis by evaluating the stool consistency, body weight and rectal bleeding.

[6] = system: cAMP degradation in U937 cells; test: In vitro inhibition of cAMP degradation in U937 cells (forskolin, cAMP EIA); assay type: cell-based; conditions: Homo sapiens, U-937, 10 μM forskolin
Experimental: In vitro Inhibition of cAMP Degradation in U937 Cells: Compounds of this invention were evaluated for their ability to inhibit in cells the hydrolysis of cAMP induced by forskolin, an adenylate cyclase stimulator. In brief, 3×10^5 U937 cells per well on a 96-well plate were incubated for 10 min at 37° C. in 200 μl RPMI-1640 containing 10% FBS, which was followed by treatment of either DMSO or a DMSO stock solution of a compound of the present invention at a designated dose. Then the cells were stimulated with 10 μM forskolin for 10 min at 37° C. The plate was centrifuged for 5 min at 1500 rpm. 120 μl of the supernatant was carefully removed from each well and 200 μl of lysis agent 1B was added to the well. Then the cell lysate was assayed to determine the level of cAMP by enzyme immunoassay (EIA) using a cAMP EIA kit from Amersham Pharmacia Biotech (Kit #RPN225). IC50's were determined for compounds of this invention from dose response curves for cAMP levels.

[7] = system: production of TNF-α in human PBMCs; test: Inhibition of TNF-α production in human PBMCs (ELISA); assay type: cell-based; conditions: PBMC
Experimental: as §2
Inhibition of TNF-α Production in Human PBMCs: Compounds of the present invention were evaluated for their ability to inhibit the production of TNF-α in human PBMCs as described in the literature. [J. Med. Chem. vol 39, 3238-3240 (1996)] Blood was freshly drawn from healthy human subjects as treated with ACD to isolate human PBMCs according to the procedure employed for rat PBMCs. The employed assay method for the ELISA against human TNF-α was essentially identical to that for the rat TNF-α ELISA assay.

T1 sequence (Q08499 whole entry): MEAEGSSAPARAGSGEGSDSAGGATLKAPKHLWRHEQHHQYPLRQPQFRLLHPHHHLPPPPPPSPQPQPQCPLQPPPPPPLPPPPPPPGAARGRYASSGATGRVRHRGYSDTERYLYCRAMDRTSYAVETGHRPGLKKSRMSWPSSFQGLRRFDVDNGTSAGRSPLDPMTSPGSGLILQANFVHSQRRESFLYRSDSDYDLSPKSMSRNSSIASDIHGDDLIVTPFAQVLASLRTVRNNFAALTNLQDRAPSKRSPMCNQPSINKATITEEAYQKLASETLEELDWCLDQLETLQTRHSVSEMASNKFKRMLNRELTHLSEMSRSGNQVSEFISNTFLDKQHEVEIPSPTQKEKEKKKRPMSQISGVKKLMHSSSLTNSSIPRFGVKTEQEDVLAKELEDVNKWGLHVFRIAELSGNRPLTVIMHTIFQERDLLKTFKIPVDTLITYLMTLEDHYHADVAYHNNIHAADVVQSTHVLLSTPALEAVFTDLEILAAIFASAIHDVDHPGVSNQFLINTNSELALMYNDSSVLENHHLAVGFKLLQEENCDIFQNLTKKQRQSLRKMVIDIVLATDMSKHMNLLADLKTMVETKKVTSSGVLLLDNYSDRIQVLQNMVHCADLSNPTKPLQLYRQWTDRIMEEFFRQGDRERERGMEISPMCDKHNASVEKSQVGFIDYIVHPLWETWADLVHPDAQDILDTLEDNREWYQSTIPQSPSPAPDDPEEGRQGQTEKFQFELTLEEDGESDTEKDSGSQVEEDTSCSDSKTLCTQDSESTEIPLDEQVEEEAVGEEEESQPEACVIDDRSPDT

Compound	inhibition at 0.1 µg/mL [1]	inhibition at 0.5 µg/mL [2]	melting point	IC50 [6]	IC50 [3]	inhibition in vivo at 3 mg/kg [4]	improvement in the clinical score activity from the control group [5]	IC50 [7]	inhibition in vivo at 1 mg/kg ([4]; 1 mg/kg oral gavage)	inhibition in vivo at 0.2 mg/kg ([4]; 0.2 mg/kg oral gavage)	inhibition in vivo at 0.3 mg/kg ([4]; 0.3 mg/kg oral gavage)
ON=C1CCC(C2CCCC2)=C1c1ccc(F)c(Cl)c1 [Example 3, 2-(3-chloro-4-fluorophenyl)-3-cyclopentyl-2-cyclopenten-1-one oxime]	78%	89%	143 to 144 °C	–	0.053 µg/mL	–	–	–	–	–	–
ON=C1CCC(C2CCCC2)=C1c1ccc(F)cc1 [Example 1, 3-cyclopentyl-2-(4-fluorophenyl)-2-cyclopenten-1-one oxime]	79%	72%	204 to 205 °C	–	0.12 µg/mL	72%	–	–	–	–	–
O=C(O)c1cc(/N=N/c2ccc(S(=O)(=O)Nc3ccccn3)cc2)ccc1O [sulfasalazine]	–	–	–	–	–	–	19%	–	–	–	–
ON=C1CCC(C2CCCC2)=C1c1ccc(F)c(F)c1 [Example 2, 3-cyclopentyl-2-(3,4-difluorophenyl)-2-cyclopenten-1-one oxime]	–	–	173 to 174 °C	0.1 µg/mL (≈ 0.361 µM)	0.035 µg/mL	–	–	0.072 µg/mL (≈ 0.26 µM)	–	–	78%
ON=C1CCC(C2CCCC2)=C1c1ccc2c(c1)OCO2 [Example 10, 3-cyclopentyl-2-(3,4-methylenedioxyphenyl)-2-cyclopenten-1-one oxime]	38%	33%	186 to 188 °C	–	0.097 µg/mL	–	–	–	–	–	–

Continued, in another order:

inhibition at 0.1 µg/mL [1]	inhibition at 0.5 µg/mL [2]	melting point	IC50 [6]	Compound	IC50 [3]	inhibition in vivo at 3 mg/kg [4]	improvement in the clinical score activity from the control group [5]	IC50 [7]	inhibition in vivo at 1 mg/kg ([4]; 1 mg/kg oral gavage)	inhibition in vivo at 0.2 mg/kg ([4]; 0.2 mg/kg oral gavage)	inhibition in vivo at 0.3 mg/kg ([4]; 0.3 mg/kg oral gavage)
87%	58%	158 to 160 °C	–	ON=C1CCC(C2CCCCC2)=C1c1ccc(F)c(Cl)c1 [Example 28, 2-(3-chloro-4-fluorophenyl)-3-cyclohexyl-2-cyclopenten-1-one oxime]	0.13 µg/mL	88%	–	–	–	–	–
–	–	116 to 120 °C	0.87 µg/mL (≈ 3.18 µM)	CCCCC1=C(c2ccc3c(c2)OCO3)C(=NO)CC1 [Example 45, 3-butyl-2-(3,4-methylenedioxyphenyl)-2-cyclopenten-1-one oxime]	0.69 µg/mL	–	–	0.8 µg/mL (≈ 2.93 µM)	42%	–	–
–	–	–	0.27 µg/mL (≈ 0.981 µM)	COc1ccc(C2CNC(=O)C2)cc1OC1CCCC1 (centres unmarked) [Rolipram, rolipram, reference compound]	0.05 to 0.1 µg/mL	–	–	0.01 to 0.1 µg/mL (≈ 0.0363 to 0.363 µM)	–	~50%	–
23%	0%	136 to 137 °C	–	CCCC1=C(c2ccc(F)c(F)c2)C(=NO)CC1 [Example 79, 2-(3,4-difluorophenyl)-3-propyl-2-cyclopenten-1-one oxime]	0.18 µg/mL	85%	–	–	–	–	–
